Data on four molecules can be found in the supplement of paper PMC10307832.

One assay relates to A-427. Nature of the assay: relative viability (nuclei count vs DMSO), 5 days (fraction); higher = more cells survive. Particulars: first compound 0.04 µM. The essentials: (§1)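 Each reported value is a median over duplicate plates. It expresses relative viability: treated-well nuclei count divided by vehicle-well nuclei count. Lung cancer cell lines in 1536-well plates were dosed by pin tool a day after seeding, alone with one drug or with a fixed anchor-drug dose plus five library-drug doses (not always all listed) in √10 steps, and nuclei were counted after 5 days.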
`COc1cc(N2CCC(C(N)=O)CC2)ccc1Nc1nc(N)c(Cl)c(Nc2ccccc2S(=O)(=O)C(C)C)n1` [HG-5-88-01] + N=C(N)NC(=N)NCCc1ccccc1 [Phenformin] (partner 250 µM) displayed a relative viability of 0.36.

Turning to `Clc1ccc(Nc2nnc(Cc3ccncc3)c3ccccc23)cc1` [Vatalanib] + COc1cccc2cc(-c3nc([C@H]4CC[C@H](C(=O)O)CC4)n4ncnc(N)c34)[nH]c12 [OSI-027] (partner 0.5 µM), the relative viability was 0.504.

`Clc1ccc(Nc2nnc(Cc3ccncc3)c3ccccc23)cc1` [Vatalanib] + N=C(N)NC(=N)NCCc1ccccc1 [Phenformin] (partner 250 µM) had a relative viability of 0.427.

Consider `Clc1ccc(Nc2nnc(Cc3ccncc3)c3ccccc23)cc1` [Vatalanib] + Nc1nc2[nH]cc(CCc3ccc(C(=O)N[C@@H](CCC(=O)O)C(=O)O)cc3)c2c(=O)[nH]1 [Pemetrexed] (partner 0.2 µM), for which the relative viability stood at 0.98.

Still in this assay, the particulars now being: first compound 0.1265 µM.
For `COc1cc(N2CCC(C(N)=O)CC2)ccc1Nc1nc(N)c(Cl)c(Nc2ccccc2S(=O)(=O)C(C)C)n1` [HG-5-88-01] + N=C(N)NC(=N)NCCc1ccccc1 [Phenformin] (partner 250 µM), the relative viability worked out at 0.336.

With `Clc1ccc(Nc2nnc(Cc3ccncc3)c3ccccc23)cc1` [Vatalanib] + COc1cccc2cc(-c3nc([C@H]4CC[C@H](C(=O)O)CC4)n4ncnc(N)c34)[nH]c12 [OSI-027] (partner 0.5 µM), the relative viability stood at 0.453.

With `Clc1ccc(Nc2nnc(Cc3ccncc3)c3ccccc23)cc1` [Vatalanib] + N=C(N)NC(=N)NCCc1ccccc1 [Phenformin] (partner 250 µM), the relative viability was determined as 0.295.

`Clc1ccc(Nc2nnc(Cc3ccncc3)c3ccccc23)cc1` [Vatalanib] + Nc1nc2[nH]cc(CCc3ccc(C(=O)N[C@@H](CCC(=O)O)C(=O)O)cc3)c2c(=O)[nH]1 [Pemetrexed] (partner 0.2 µM) registered a relative viability of 0.957.

Staying with this assay, now noted: first compound 0.4 µM.
In turn, `COc1cc(N2CCC(C(N)=O)CC2)ccc1Nc1nc(N)c(Cl)c(Nc2ccccc2S(=O)(=O)C(C)C)n1` [HG-5-88-01] + N=C(N)NC(=N)NCCc1ccccc1 [Phenformin] (partner 250 µM) showed a relative viability of 0.344.

For `Clc1ccc(Nc2nnc(Cc3ccncc3)c3ccccc23)cc1` [Vatalanib] + COc1cccc2cc(-c3nc([C@H]4CC[C@H](C(=O)O)CC4)n4ncnc(N)c34)[nH]c12 [OSI-027] (partner 0.5 µM), the relative viability is 0.494.

As to `Clc1ccc(Nc2nnc(Cc3ccncc3)c3ccccc23)cc1` [Vatalanib] + N=C(N)NC(=N)NCCc1ccccc1 [Phenformin] (partner 250 µM), the relative viability stood at 0.285.

For `Clc1ccc(Nc2nnc(Cc3ccncc3)c3ccccc23)cc1` [Vatalanib] + Nc1nc2[nH]cc(CCc3ccc(C(=O)N[C@@H](CCC(=O)O)C(=O)O)cc3)c2c(=O)[nH]1 [Pemetrexed] (partner 0.2 µM), the relative viability amounted to 0.993.

The assay is the same for the next values; noted with them: first compound 1.265 µM.
In the case of `COc1cc(N2CCC(C(N)=O)CC2)ccc1Nc1nc(N)c(Cl)c(Nc2ccccc2S(=O)(=O)C(C)C)n1` [HG-5-88-01] + N=C(N)NC(=N)NCCc1ccccc1 [Phenformin] (partner 250 µM), the relative viability stood at 0.367.

`Clc1ccc(Nc2nnc(Cc3ccncc3)c3ccccc23)cc1` [Vatalanib] + COc1cccc2cc(-c3nc([C@H]4CC[C@H](C(=O)O)CC4)n4ncnc(N)c34)[nH]c12 [OSI-027] (partner 0.5 µM) yielded a relative viability of 0.464.

In turn, `Clc1ccc(Nc2nnc(Cc3ccncc3)c3ccccc23)cc1` [Vatalanib] + N=C(N)NC(=N)NCCc1ccccc1 [Phenformin] (partner 250 µM) showed a relative viability of 0.31.

Staying with this assay, now noted: first compound 4 µM.
Turning to `COc1cc(N2CCC(C(N)=O)CC2)ccc1Nc1nc(N)c(Cl)c(Nc2ccccc2S(=O)(=O)C(C)C)n1` [HG-5-88-01] + N=C(N)NC(=N)NCCc1ccccc1 [Phenformin] (partner 250 µM), the relative viability stood at 0.214.

Molecule `Clc1ccc(Nc2nnc(Cc3ccncc3)c3ccccc23)cc1` [Vatalanib] + COc1cccc2cc(-c3nc([C@H]4CC[C@H](C(=O)O)CC4)n4ncnc(N)c34)[nH]c12 [OSI-027] (partner 0.5 µM) came in with a relative viability of 0.486.

In the case of `Clc1ccc(Nc2nnc(Cc3ccncc3)c3ccccc23)cc1` [Vatalanib] + N=C(N)NC(=N)NCCc1ccccc1 [Phenformin] (partner 250 µM), the relative viability worked out at 0.298.

Molecule `Clc1ccc(Nc2nnc(Cc3ccncc3)c3ccccc23)cc1` [Vatalanib] + Nc1nc2[nH]cc(CCc3ccc(C(=O)N[C@@H](CCC(=O)O)C(=O)O)cc3)c2c(=O)[nH]1 [Pemetrexed] (partner 0.2 µM) displayed a relative viability of 0.947.

Another assay has as its system NCI-H1792. The assay is described as above. Particulars: first compound 0.04 µM. The essentials:
as §1
Take `COc1cc(N2CCC(C(N)=O)CC2)ccc1Nc1nc(N)c(Cl)c(Nc2ccccc2S(=O)(=O)C(C)C)n1` [HG-5-88-01] + N=C(N)NC(=N)NCCc1ccccc1 [Phenformin] (partner 250 µM): the relative viability worked out at 0.897.

Regarding `Clc1ccc(Nc2nnc(Cc3ccncc3)c3ccccc23)cc1` [Vatalanib] + COc1cccc2cc(-c3nc([C@H]4CC[C@H](C(=O)O)CC4)n4ncnc(N)c34)[nH]c12 [OSI-027] (partner 0.5 µM), the relative viability stood at 0.678.

`Clc1ccc(Nc2nnc(Cc3ccncc3)c3ccccc23)cc1` [Vatalanib] + N=C(N)NC(=N)NCCc1ccccc1 [Phenformin] (partner 250 µM) displayed a relative viability of 0.257.

As for `Clc1ccc(Nc2nnc(Cc3ccncc3)c3ccccc23)cc1` [Vatalanib] + Nc1nc2[nH]cc(CCc3ccc(C(=O)N[C@@H](CCC(=O)O)C(=O)O)cc3)c2c(=O)[nH]1 [Pemetrexed] (partner 0.2 µM), the relative viability was 0.902.

The same assay, now with this note: first compound 0.1265 µM.
In turn, `COc1cc(N2CCC(C(N)=O)CC2)ccc1Nc1nc(N)c(Cl)c(Nc2ccccc2S(=O)(=O)C(C)C)n1` [HG-5-88-01] + N=C(N)NC(=N)NCCc1ccccc1 [Phenformin] (partner 250 µM) returned a relative viability of 0.647.

Turning to `Clc1ccc(Nc2nnc(Cc3ccncc3)c3ccccc23)cc1` [Vatalanib] + COc1cccc2cc(-c3nc([C@H]4CC[C@H](C(=O)O)CC4)n4ncnc(N)c34)[nH]c12 [OSI-027] (partner 0.5 µM), the relative viability amounted to 0.68.

As to `Clc1ccc(Nc2nnc(Cc3ccncc3)c3ccccc23)cc1` [Vatalanib] + Nc1nc2[nH]cc(CCc3ccc(C(=O)N[C@@H](CCC(=O)O)C(=O)O)cc3)c2c(=O)[nH]1 [Pemetrexed] (partner 0.2 µM), the relative viability came to 0.781.

The assay is the same for the next values; noted with them: first compound 0.4 µM.
`COc1cc(N2CCC(C(N)=O)CC2)ccc1Nc1nc(N)c(Cl)c(Nc2ccccc2S(=O)(=O)C(C)C)n1` [HG-5-88-01] + N=C(N)NC(=N)NCCc1ccccc1 [Phenformin] (partner 250 µM) displayed a relative viability of 0.548.

Turning to `Clc1ccc(Nc2nnc(Cc3ccncc3)c3ccccc23)cc1` [Vatalanib] + COc1cccc2cc(-c3nc([C@H]4CC[C@H](C(=O)O)CC4)n4ncnc(N)c34)[nH]c12 [OSI-027] (partner 0.5 µM), the relative viability turned out to be 0.704.

Consider `Clc1ccc(Nc2nnc(Cc3ccncc3)c3ccccc23)cc1` [Vatalanib] + N=C(N)NC(=N)NCCc1ccccc1 [Phenformin] (partner 250 µM), for which the relative viability amounted to 0.224.
